Test results from PMC12860872, “Preclinical evaluation of DOTAGA.Glu.(FAPI)2 and DO3A.Glu.(FAPI)2 as theranostics with human dosimetry extrapolation to lutetium-177 and terbium-161 analogs” (European Journal of Nuclear Medicine and Molecular Imaging, 2025).

What was measured:
FAP+ CAFs = assay: Externalization from CAFs; format: cell-based, human; details: after 24 h at 37 °C
Description: For receptor saturation studies, FAP^+ CAFs were incubated with 0.1 to 10 nM of the radioligands. For internalization studies, approximately 2.5 pmol of the radioligands were added to CAFs followed by incubation for 15, 30, 60, 90, 120, 180 and 240 min for the ^68Ga-labeled or 30, 60, 120, 240 and 360 min for the ^177Lu-labeled radioligands at 37 °C, 5% CO2. For the externalization studies, approximately 2.5 pmol of the ^177Lu-labeled radioligands were added to CAFs followed by incubation for 2 h at 37 °C, 5% CO2. The amount of externalized activity was measured at 0, 10, 20, 30, 60, 120, 240, and 1440 min (Supplemental Data).
After the completion of the 2 hours of incubation, the medium was removed and CAF cells were washed with 1 mL of cold PBS (x2). The cells were then exposed to an acid wash with glycine buffer, as described above, to dissociate membrane-bound radioligand, and the fractions were collected. Fresh medium (1 mL/well) was added to the cells and were incubated at 37 °C. At different time points (10, 20, 30, 60, 120, 240 and 1440 minutes) the external medium was removed (followed by two washing steps with cold PBS). […] The radioactivity of the culture medium, the membrane-bound, the internalized and the externalized fractions were measured in a gamma-counter. The externalized fraction of radioactivity was expressed as the percentage of the total internalized amount.

PC3-mice [1] = assay: Organ clearance biological half-lives from biodistribution data; format: in vivo, mouse; details: for Bone clearance half-life, 95% confidence interval / Kidney clearance half-life, 95% confidence interval / Liver clearance half-life, 95% confidence interval / Pancreas clearance half-life, 95% confidence interval / Salivary glands clearance half-life, 95% confidence interval / Tumor clearance half-life, 95% confidence interval: PC3-mice, One-Phase Decay Model
Description: Blood samples were collected from the facial vein at 1, 3, 5, 7, 10, 15, 20, 30, 45, 60, 240, and 1440 min p.i., weighed, and measured for radioactivity using a γ-counter. Results were expressed as % I.A./g of blood and plotted over time. The initial and terminal half-lives were determined using Two-Phase Decay Model. The biological half-lives of selected organs were calculated from the biodistribution data using One-Phase Decay Model (GraphPad Prism 8).

PC3-mice [2] = assay: Dosimetry in mice (nTACs, effective half-lives, TIAC/g); format: in vivo, mouse; details: for Effective half life: Tumor: nTACs
Description: (n = 3). The %I.A./g of tissue was calculated for liver, lungs, stomach, spleen, pancreas, kidneys, intestines, bone, muscle, salivary glands, heart wall, blood, tumor. To estimate the absolute activity in each source organ, the individual %I.A./g values were multiplied by the corresponding organ mass derived from the standard 25 g MOBY mouse phantom, yielding in the normalized source organ activities (nA) per time point and animal.
Following Cicone et al., the nA values for source organs were corrected to account for the fraction of administered activity sequestered by the tumor, as described in more detail in the dosimetry section of the supplemental data. According to the MIRD formalism, time-integrated activity coefficients (TIACs) were derived by integrating the normalized time-activity curves (nTACs), which were fitted using the bi-exponential functions. TIACs were calculated by fitting the nTACs with the bi-exponential functions and performing time integration in MATLAB. Additionally, mass-normalized TIACs (TIAC/g) were derived using organ masses from the standard 25 g MOBY mouse phantom (Supplemental data).
Biodistribution kinetics for [177Lu]Lu-DOTAGA.Glu.(FAPI)2 and [177Lu]Lu-DO3A.Glu.(FAPI)2 were assessed by ex vivo quantification of the accumulated radioactivity in source organs using a calibrated gamma counter at 4, 24, 48, 72, and 96 hours p.i. (n=3). The percentage of injected activity per gram of tissue (%I.A./g) was calculated, as described above, for a comprehensive panel of tissues, including liver, lungs, stomach, spleen, pancreas, kidneys, intestines, bone, muscle, salivary glands, heart wall, blood, and tumor. To estimate the absolute activity in each source organ, the individual %I.A./g values was multiplied by the corresponding organ mass derived from the standard 25 g MOBY mouse phantom, which provides high-resolution anatomical reference data for the murine models (28). […] The actual activity measurements were referred to the gamma counter measurement time (i.e. no physical decay correction to the administration time was applied). For each organ and time point, the mean nA was subsequently calculated across the three animals.
As outlined by Cicone et al., (1) the nA values for source organs were corrected to account for the fraction of administered activity sequestered by the tumor by redistributing the tumor nA (nAtumor) to organs according to the formula: […]
Where nAWB is the nA measured in the whole body. This adjustment was implemented to facilitate the extrapolation of absorbed dose data from mice to humans, considering that the tumor "sink effect" - prominent in murine models - is generally negligible in human subjects. In radiopharmaceutical dosimetry using tumor-bearing mice, the “tumor sink” effect refers to the phenomenon where large or highly avid tumors absorb a significant portion of the injected radiotracer, reducing its availability to normal organs. This can lead to artificially low uptake measurements in healthy tissues, which may not reflect what would occur in humans with smaller tumors or lower tumor burden. To correct for this, dosimetry calculations often include a "tumor sink correction" that adjusts normal organ uptake values to account for the radiotracer sequestered by the tumor, ensuring more accurate and clinically relevant dose estimates.
According to the MIRD formalism, for each source organ, time-integrated activity coefficients (TIACs) were derived by integrating the normalized time-activity curves (nTACs), which were fitted using the bi-exponential functions. The integration of the fitted nTACs was extended to infinity for organs in which the effective half-life of the slower bi-exponential component (tslow) was shorter than the physical half-life of lutetium-177 (tslow < tphys). […]

[3] = PC3-mice, nTACs corrected for tumor sink

SMILES	initially internalized activity released (FAP+ CAFs)	Bone clearance half-life, 95% confidence interval (PC3-mice [1])	Kidney clearance half-life, 95% confidence interval (PC3-mice [1])	Liver clearance half-life, 95% confidence interval (PC3-mice [1])	Pancreas clearance half-life, 95% confidence interval (PC3-mice [1])	Salivary glands clearance half-life, 95% confidence interval (PC3-mice [1])	Tumor clearance half-life, 95% confidence interval (PC3-mice [1])	TIAC/g Bones (PC3-mice [2]; Mouse)	TIAC/g Heart contents (PC3-mice [2]; Mouse)	TIAC/g Kidneys (PC3-mice [2]; Mouse)	TIAC/g Liver (PC3-mice [2]; Mouse)	TIAC/g Pancreas (PC3-mice [2]; Mouse)	TIAC/g Rest of the body (PC3-mice [2]; Mouse)	TIAC/g Salivary glands (PC3-mice [2]; Mouse)	TIAC/g Tumor (PC3-mice [2]; Mouse)	Effective half life: Tumor (PC3-mice [2]; PC3-mice)	Effective half life: Bones (PC3-mice [2]; [3])	Effective half life: Heart content (PC3-mice [2]; [3])	Effective half life: Kidney (PC3-mice [2]; [3])	Effective half life: Lung (PC3-mice [2]; [3])	other results
N#C[C@@H]1CC(F)(F)CN1C(=O)CNC(=O)c1ccnc2ccc(OCCCCNC(=O)CC[C@H](NC(=O)CN3CCN(CC(=O)[O-])CCN(CC(=O)[O-])CCN(CC(=O)[O-])CC3)C(=O)NCCCCOc3ccc4nccc(C(=O)NCC(=O)N5CC(F)(F)C[C@H]5C#N)c4c3)cc12.[177Lu+3] [[^177Lu]Lu-DO3A.Glu.(FAPI)2]	~ 46%	14.85 to 18.53 h	18.73 to 31.89 h	51.46 to 92.13 h	12.66 to 19.50 h	13.95 to 20.7 h	17.58 to 22.85 h	3.82 ± 0.12 h/g	0.12 ± 0.003 h/g	0.20 ± 0.01 h/g	3.47 ± 0.14 h/g	0.20 ± 0.01 h/g	10.77 ± 0.32 h/g	0.25 ± 0.02 h/g	1.61 ± 0.2 h/g	51 ± 12.6 h	23.3 ± 1.4 h	12.8 ± 0.4 h	22.3 ± 7.1 h	18.3 ± 4.4 h	Effective half life: Liver (PC3-mice [2]; [3]): 70.4 ± 2.9 h; Effective half life: Pancreas (PC3-mice [2]; [3]): 14.1 ± 3.2 h; Effective half life: Salivary glands (PC3-mice [2]; [3]): 11.8 ± 5.9 h; Effective half life: Small Intestine (PC3-mice [2]; [3]): 16.2 ± 4.5 h
N#C[C@@H]1CC(F)(F)CN1C(=O)CNC(=O)c1ccnc2ccc(OCCCCNC(=O)CC[C@H](NC(=O)CCC(C(=O)O)N3CCN(CC(=O)[O-])CCN(CC(=O)[O-])CCN(CC(=O)[O-])CC3)C(=O)NCCCCOc3ccc4nccc(C(=O)NCC(=O)N5CC(F)(F)C[C@H]5C#N)c4c3)cc12.[177Lu+3] (stereo partly shown) [[^177Lu]Lu-DOTAGA.Glu.(FAPI)2]	~ 40%	27.60 to 33.77 h	23.41 to 38.84 h	70.61 to 362.5 h	16.87 to 39.95 h	12.06 to 34.90 h	19.85 to 32.80 h	6.65 ± 0.39 h/g	0.11 ± 0.005 h/g	0.39 ± 0.02 h/g	9.65 ± 0.82 h/g	0.29 ± 0.01 h/g	10.75 ± 0.68 h/g	0.36 ± 0.01 h/g	1.19 ± 0.16 h/g	39.1 ± 1.1 h	30.9 ± 0.5 h	12.5 ± 0.1 h	50.1 ± 3.1 h	19.9 ± 0.6 h	tumor biological half-life (PC3-mice [1]; PC3-tumors): 25.5 h; Liver TIAC/g, times higher than for [177Lu]Lu-DO3A.Glu.(FAPI)2 (PC3-mice [2]; Mouse): 2.7 times; Effective half life: Pancreas (PC3-mice [2]; [3]): 40 ± 14.2 h; Effective half life: Salivary glands (PC3-mice [2]; [3]): 52.1 ± 14.9 h; Effective half life: Small Intestine (PC3-mice [2]; [3]): 25.4 ± 0.9 h
